Measurements taken from patent publication US10336734B2, “Inhibitors of ACK1/TNK2 tyrosine kinase” (H. LEE MOFFITT CANCER CENTER AND RESEARCH INSTITUTE, INC., priority 2015, dated 2019).
Structures can show the parent of a compound that is named as a salt.

Tests used:
ACK1 [1] = target: T1, ACK1 (Homo sapiens (Human), UniProt Q07912); assay: ACK1 ELISA; type: biochemical; settings: read-out: ACK1 ELISA % inhibition at 10 μM
ACK1 [2] = target: T1, ACK1; assay: ACK1 IC50 (RB); type: biochemical
JAK2 = JAK2 (Homo sapiens (Human), UniProt O60674); assay: JAK2 IC50 (RB); type: biochemical
ALK = ALK (Homo sapiens (Human), UniProt Q9UM73); assay: ALK IC50 (RB); type: biochemical
c-Src = c-Src (Homo sapiens (Human), UniProt P12931); assay: c-Src IC50 (RB); type: biochemical
[3] = system: histone H4 Y88-phosphorylation; assay: Immunoblot of H4 Y88-phosphorylation in ligand-treated PC cells; type: cell-based; settings: serum and androgen starved PC cells, ligand activated; 5 μM (DHT 10 nM)
Procedure: FIG. 2A through 2C. ACK1 inhibitor (R)-9bMS suppresses epigenetic modification of histone H4 at tyrosine 88.
To assess endogenous H4-phosphorylation, serum and androgen starved PC cells were treated with ligands to activate ACK1. It led to robust H4 Y88-phosphorylation, suppressed upon (R)-9bMS treatment (FIG. 2A). […] Moreover, H4 Y88-phosphorylation was also detected in human CRPCs using mass spectrometry, which was validated by immunoblotting (FIG. 3A-3C).

[4] = system: castration and radioresistant prostate xenograft tumor; settings: in vivo; cited from earlier work
[5] = system: LNCaP cells expressing constitutively activated ACK1; settings: mouse xenograft model; cited from earlier work
[6] = system: non-small cell lung cancer (NSCLC) cell lines; settings: panel of NSCLC cell lines; cited from earlier work

Sequence of ALK (Q9UM73 19-1620, species assumed): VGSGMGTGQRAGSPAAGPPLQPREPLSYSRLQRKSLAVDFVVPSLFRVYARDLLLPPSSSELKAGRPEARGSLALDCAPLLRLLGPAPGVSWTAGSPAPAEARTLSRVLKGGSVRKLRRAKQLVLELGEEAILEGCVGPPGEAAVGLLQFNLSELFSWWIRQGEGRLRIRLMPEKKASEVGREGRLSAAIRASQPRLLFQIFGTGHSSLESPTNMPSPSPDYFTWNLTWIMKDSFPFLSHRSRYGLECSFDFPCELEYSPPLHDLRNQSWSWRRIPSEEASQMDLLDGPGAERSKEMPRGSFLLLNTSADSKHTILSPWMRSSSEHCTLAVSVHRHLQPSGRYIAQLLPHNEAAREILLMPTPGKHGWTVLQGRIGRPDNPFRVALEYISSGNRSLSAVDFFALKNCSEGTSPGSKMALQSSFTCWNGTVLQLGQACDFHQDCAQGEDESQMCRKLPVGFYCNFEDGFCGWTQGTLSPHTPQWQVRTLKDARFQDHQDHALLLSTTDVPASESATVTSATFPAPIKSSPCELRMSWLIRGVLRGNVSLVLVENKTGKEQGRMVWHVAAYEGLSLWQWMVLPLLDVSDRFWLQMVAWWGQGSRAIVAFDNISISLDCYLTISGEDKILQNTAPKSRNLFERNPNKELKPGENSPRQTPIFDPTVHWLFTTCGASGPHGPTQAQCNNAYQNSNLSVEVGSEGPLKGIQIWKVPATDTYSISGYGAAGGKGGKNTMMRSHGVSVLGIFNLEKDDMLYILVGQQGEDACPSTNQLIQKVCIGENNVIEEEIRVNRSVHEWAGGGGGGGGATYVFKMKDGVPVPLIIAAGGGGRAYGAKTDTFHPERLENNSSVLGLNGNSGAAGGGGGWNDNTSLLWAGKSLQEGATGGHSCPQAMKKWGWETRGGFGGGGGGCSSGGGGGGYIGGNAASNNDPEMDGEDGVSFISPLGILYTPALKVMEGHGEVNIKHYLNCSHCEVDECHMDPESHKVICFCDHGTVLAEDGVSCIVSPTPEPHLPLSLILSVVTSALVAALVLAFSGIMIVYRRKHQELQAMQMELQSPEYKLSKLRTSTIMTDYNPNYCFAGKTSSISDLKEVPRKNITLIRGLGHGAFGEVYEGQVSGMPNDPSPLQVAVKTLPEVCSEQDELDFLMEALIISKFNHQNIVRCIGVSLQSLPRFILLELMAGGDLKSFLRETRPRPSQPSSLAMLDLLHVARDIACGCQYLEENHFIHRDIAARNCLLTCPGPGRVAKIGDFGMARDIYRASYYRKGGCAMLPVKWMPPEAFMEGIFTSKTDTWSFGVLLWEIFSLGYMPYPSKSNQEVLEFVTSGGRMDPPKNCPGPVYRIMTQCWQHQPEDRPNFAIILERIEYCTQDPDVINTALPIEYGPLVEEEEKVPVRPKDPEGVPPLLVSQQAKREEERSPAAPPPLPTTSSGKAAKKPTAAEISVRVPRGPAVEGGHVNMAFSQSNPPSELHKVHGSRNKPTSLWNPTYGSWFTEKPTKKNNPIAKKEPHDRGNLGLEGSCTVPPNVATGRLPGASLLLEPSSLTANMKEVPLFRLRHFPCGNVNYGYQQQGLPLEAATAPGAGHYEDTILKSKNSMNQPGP
Sequence of JAK2 (O60674 whole entry, species assumed): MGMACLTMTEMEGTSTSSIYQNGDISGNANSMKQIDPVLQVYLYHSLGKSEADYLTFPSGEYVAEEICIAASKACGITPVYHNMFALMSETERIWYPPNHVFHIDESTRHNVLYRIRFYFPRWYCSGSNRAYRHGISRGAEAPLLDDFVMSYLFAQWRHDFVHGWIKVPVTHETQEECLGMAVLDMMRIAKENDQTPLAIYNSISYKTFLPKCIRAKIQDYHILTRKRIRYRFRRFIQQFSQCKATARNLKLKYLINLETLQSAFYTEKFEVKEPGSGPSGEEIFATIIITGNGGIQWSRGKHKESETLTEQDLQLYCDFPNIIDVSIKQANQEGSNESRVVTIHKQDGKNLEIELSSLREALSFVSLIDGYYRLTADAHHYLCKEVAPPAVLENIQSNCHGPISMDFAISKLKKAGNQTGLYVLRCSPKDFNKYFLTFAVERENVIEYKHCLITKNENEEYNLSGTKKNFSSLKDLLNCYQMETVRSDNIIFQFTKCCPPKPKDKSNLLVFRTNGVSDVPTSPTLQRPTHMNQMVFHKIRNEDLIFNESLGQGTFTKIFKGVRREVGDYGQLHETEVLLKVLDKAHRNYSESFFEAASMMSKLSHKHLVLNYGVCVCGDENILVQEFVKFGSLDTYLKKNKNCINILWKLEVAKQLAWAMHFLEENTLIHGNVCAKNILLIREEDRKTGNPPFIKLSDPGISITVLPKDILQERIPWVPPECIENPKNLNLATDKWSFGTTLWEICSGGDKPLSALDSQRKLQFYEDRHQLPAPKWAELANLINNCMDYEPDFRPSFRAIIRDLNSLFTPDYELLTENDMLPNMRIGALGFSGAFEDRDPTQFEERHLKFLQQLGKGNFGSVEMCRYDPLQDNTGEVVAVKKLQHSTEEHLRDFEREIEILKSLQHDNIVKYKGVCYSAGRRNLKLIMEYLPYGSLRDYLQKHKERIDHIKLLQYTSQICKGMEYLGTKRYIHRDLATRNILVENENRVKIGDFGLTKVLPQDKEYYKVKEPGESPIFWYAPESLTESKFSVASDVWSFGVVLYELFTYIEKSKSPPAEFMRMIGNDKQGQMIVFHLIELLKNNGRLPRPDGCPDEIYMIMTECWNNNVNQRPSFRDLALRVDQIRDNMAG
Sequence of c-Src (P12931 whole entry, looked up, species assumed): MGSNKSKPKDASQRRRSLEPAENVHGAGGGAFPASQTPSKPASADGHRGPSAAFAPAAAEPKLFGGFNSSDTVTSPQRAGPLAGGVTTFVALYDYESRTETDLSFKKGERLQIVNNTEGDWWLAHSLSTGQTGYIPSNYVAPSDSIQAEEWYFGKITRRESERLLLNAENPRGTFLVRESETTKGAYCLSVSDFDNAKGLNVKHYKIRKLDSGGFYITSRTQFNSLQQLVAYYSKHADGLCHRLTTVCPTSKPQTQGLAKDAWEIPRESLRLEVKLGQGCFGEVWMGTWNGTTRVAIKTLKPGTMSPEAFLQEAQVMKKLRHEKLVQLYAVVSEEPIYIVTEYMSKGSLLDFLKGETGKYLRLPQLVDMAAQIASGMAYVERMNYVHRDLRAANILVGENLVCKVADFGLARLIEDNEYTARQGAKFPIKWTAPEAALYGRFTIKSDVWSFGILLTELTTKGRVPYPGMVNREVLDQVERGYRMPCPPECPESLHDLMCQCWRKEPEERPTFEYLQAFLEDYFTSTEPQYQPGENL
T1 sequence (Q07912 whole entry): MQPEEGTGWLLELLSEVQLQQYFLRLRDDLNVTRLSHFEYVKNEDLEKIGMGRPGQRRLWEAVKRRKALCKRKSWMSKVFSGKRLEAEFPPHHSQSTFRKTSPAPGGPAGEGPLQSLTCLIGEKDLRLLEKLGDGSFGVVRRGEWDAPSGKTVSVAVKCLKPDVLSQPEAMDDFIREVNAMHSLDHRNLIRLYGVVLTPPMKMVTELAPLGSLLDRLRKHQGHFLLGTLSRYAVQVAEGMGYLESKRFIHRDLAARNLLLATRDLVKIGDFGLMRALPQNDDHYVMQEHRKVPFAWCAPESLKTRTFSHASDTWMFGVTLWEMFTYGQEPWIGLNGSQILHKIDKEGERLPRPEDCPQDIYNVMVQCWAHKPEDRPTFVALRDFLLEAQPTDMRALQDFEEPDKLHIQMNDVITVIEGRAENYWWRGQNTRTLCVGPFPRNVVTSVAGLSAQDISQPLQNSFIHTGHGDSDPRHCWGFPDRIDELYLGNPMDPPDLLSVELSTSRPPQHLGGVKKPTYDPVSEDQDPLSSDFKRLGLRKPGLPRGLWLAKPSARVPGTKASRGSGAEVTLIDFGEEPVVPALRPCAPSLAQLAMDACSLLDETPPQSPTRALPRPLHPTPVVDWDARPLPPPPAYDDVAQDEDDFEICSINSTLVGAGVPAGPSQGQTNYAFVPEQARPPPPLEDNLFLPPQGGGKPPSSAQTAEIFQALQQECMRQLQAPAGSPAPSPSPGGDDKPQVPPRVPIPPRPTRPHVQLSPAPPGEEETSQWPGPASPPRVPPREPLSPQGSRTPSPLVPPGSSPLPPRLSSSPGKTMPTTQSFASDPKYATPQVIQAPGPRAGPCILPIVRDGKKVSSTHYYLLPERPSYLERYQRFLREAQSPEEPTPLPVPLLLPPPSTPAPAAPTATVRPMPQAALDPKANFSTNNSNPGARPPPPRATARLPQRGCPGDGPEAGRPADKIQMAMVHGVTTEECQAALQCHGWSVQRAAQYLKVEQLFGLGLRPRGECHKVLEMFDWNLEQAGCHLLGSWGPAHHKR

## CN1CCN(c2ccc(Nc3ncc(Cl)c(NCCc4ccccn4)n3)cc2)CC1 [Example 15, 5-Chloro-N2-(4-(4-methylpiperazin-1-yl)phenyl)-N4-(2-(pyridin-2-yl)ethyl)pyrimidine-2,4-diamine]
ACK1 [1]
  inhibition at 10 µM: 91.9%

## CN1CCN(c2ccc(Nc3ncc(Cl)c(NCCc4ccc(Cl)cc4Cl)n3)cc2)CC1 [Example 9, 5-Chloro-N4-(2,4-dichlorophenethyl)-N2-(4-(4-methylpiperazin-1-yl)phenyl)pyrimidine-2,4-diamine]
ACK1 [1]
  inhibition at 10 µM: 36.5%

## COc1cc(N2CCN(C)CC2)ccc1Nc1ncc(Cl)c(NC[C@H]2CCCO2)n1 [Example 26, (R)-5-Chloro-N^2-[2-methoxy-4-(4-methylpiperazin-1-yl)phenyl]-N^4-[(tetrahydrofuran-2-yl)methyl]pyrimidine-2,4-diamine]
ACK1 [2]
  IC50: 39 nM
JAK2
  IC50: 1080 nM
ALK
  IC50: 34 nM
c-Src
  IC50: 16800 nM

## CN1CCC(NC(=O)c2ccc(Nc3ncc(Cl)c(NC[C@H]4CCCO4)n3)cc2F)CC1 [Example 25, (R)-4-((5-chloro-4-(((tetrahydrofuran-2-yl)methyl)amino)pyrimidin-2-yl)amino)-2-fluoro-N-(1-methylpiperidin-4-yl)benzamide]
ACK1 [1]
  inhibition at 10 µM: 86.9%

## CN1CCN(c2ccc(Nc3ncc(Cl)c(NCCc4ccccc4Cl)n3)cc2)CC1 [Example 11, 5-Chloro-N4-(2-chlorophenethyl)-N2-(4-(4-methylpiperazin-1-yl)phenyl)pyrimidine-2,4-diamine]
ACK1 [1]
  inhibition at 10 µM: 91%

## COc1ccccc1CCNc1nc(Nc2ccc(N3CCN(C)CC3)cc2)ncc1Cl [Example 14, 5-Chloro-N4-(2-methoxyphenethyl)-N2-(4-(4-methylpiperazin-1-yl)phenyl)pyrimidine-2,4-diamine]
ACK1 [1]
  inhibition at 10 µM: 98%

## CN1CCN(c2ccc(Nc3ncc(Cl)c(NCCc4c(F)cccc4Cl)n3)cc2)CC1 [Example 12, 5-Chloro-N4-(2-chloro-6-fluorophenethyl)-N2-(4-(4-methylpiperazin-1-yl)phenyl)pyrimidine-2,4-diamine]
ACK1 [1]
  inhibition at 10 µM: 93%

## COc1ccccc1CCNc1nc(Nc2ccc(N3CCN(C)CC3)cc2OC)ncc1Cl [Example 21, 5-Chloro-N^2-[2-methoxy-4-(4-methylpiperazin-1-yl)phenyl]-N^4-(2-methoxyphenethyl)pyrimidine-2,4-diamine]
ACK1 [2]
  IC50: 24 nM
JAK2
  IC50: 860 nM
ALK
  IC50: 2 nM
c-Src
  IC50: 8250 nM

## Cc1ccc(CNc2nc(Nc3ccc(N4CCN(C)CC4)cc3)ncc2Cl)o1 [Example 3, 5-Chloro-N4-((5-methylfuran-2-yl)methyl)-N2-(4-(4-methylpiperazin-1-yl)phenyl)-pyrimidine-2,4-diamine]
ACK1 [1]
  inhibition at 10 µM: 90.9%

## CN1CCN(C(=O)Cc2ccc(Nc3ncc(Cl)c(NC[C@H]4CCCO4)n3)cc2)CC1 [Example 24, (R)-2-(4-((5-chloro-4-(((tetrahydrofuran-2-yl)methyl)amino)pyrimidin-2-yl)amino)phenyl)-1-(4-methylpiperazin-1-yl)ethan-1-one]
ACK1 [1]
  inhibition at 10 µM: 86.8%

## CN1CCN(c2ccc(Nc3ncc(Cl)c(NCCc4ccccc4F)n3)cc2)CC1 [Example 13, 5-Chloro-N4-(2-fluorophenethyl)-N2-(4-(4-methylpiperazin-1-yl)phenyl)pyrimidine-2,4-diamine]
ACK1 [1]
  inhibition at 10 µM: 91%

## C[C@]12CCC(=O)C[C@@H]1CC[C@@H]1[C@@H]2CC[C@]2(C)[C@@H](O)CC[C@@H]12 [DHT]
[3]
  H4 Y88-phosphorylation: remained unaffected

## CN1CCN(c2ccc(Nc3ncc(Cl)c(NCCc4c(Cl)cccc4Cl)n3)cc2)CC1 [Example 10, 5-Chloro-N4-(2,6-dichlorophenethyl)-N2-(4-(4-methylpiperazin-1-yl)phenyl)pyrimidine-2,4-diamine]
ACK1 [1]
  inhibition at 10 µM: 97%

## c1ccc(-c2oc3ncnc(NC[C@@H]4CCCO4)c3c2-c2ccccc2)cc1 [Example 1b]
[4]
  Castration and radioresistant prostate xenograft tumor growth: inhibits

## Cc1nc(Nc2ncc(C(=O)Nc3c(C)cccc3Cl)s2)cc(N2CCN(CCO)CC2)n1 [Dasatinib]
[5]
  Growth of LNCaP cells expressing constitutively activated ACK1, xenograft: significantly reduced

## COc1cc(N2CCN(C)CC2)ccc1Nc1ncc(Cl)c(NCCc2c(F)cccc2Cl)n1 [Example 20, 5-Chloro-N^4-(2-chloro-6-fluorophenethyl)-N^2-[2-methoxy-4-(4-methylpiperazin-1-yl)phenyl]pyrimidine-2,4-diamine]
ACK1 [2]
  IC50: 27 nM
JAK2
  IC50: 1720 nM
ALK
  IC50: 7 nM
c-Src
  IC50: 11500 nM

## CN1CCN(c2ccc(Nc3ncc(Cl)c(NCC4CCCN4C)n3)cc2)CC1 (stereo not drawn) [Example 6, 5-Chloro-N2-(4-(4-methylpiperazin-1-yl)phenyl)-N4-((1-methylpyrrolidin-2-yl)methyl)pyrimidine-2,4-diamine tri TFA salt]
ACK1 [1]
  inhibition at 10 µM: 35.6%

## Cc1ccccc1CCNc1nc(Nc2ccc(N3CCN(C)CC3)cc2)ncc1Cl [Example 16, 5-Chloro-N4-(2-methylphenethyl)-N2-(4-(4-methylpiperazin-1-yl)phenyl)pyrimidine-2,4-diamine]
ACK1 [1]
  inhibition at 10 µM: 91%

## COc1cc(Nc2c(C#N)cnc3cc(OCCCN4CCN(C)CC4)c(OC)cc23)c(Cl)cc1Cl [bosutinib]
[6]
  cell migration and invasion: inhibit cell migration and invasion
  viability: not viability

## CN1CCN(c2ccc(Nc3ncc(Cl)c(NCC4CCCN4)n3)cc2)CC1 (stereo not drawn) [Example 2, 5-Chloro-N2-(4-(4-methylpiperazin-1-yl)phenyl)-N4-(pyrrolidin-2-ylmethyl)pyrimidine-2,4-diamine tri-TFA salt]
ACK1 [1]
  inhibition at 10 µM: 18.3%

## CN1CCN(c2ccc(Nc3ncc(Cl)c(NCc4ccco4)n3)cc2)CC1 [Example 1, 5-Chloro-N4-(furan-2-ylmethyl)-N2-(4-(4-methylpiperazin-1-yl)phenyl)pyrimidine-2,4-diamine]
ACK1 [1]
  inhibition at 10 µM: 96%

## CN1CCN(c2ccc(Nc3ncc(Cl)c(NCC4CCCC4)n3)cc2)CC1 [Example 5, 5-Chloro-N4-(cyclopentylmethyl)-N2-(4-(4-methylpiperazin-1-yl)phenyl)pyrimidine-2,4-diamine]
ACK1 [1]
  inhibition at 10 µM: 97%

## CN1CCN(c2ccc(Nc3ncc(Cl)c(NCCc4ccccc4)n3)cc2)CC1 [Example 7, 5-chloro-N2-(4-(4-methylpiperazin-1-yl)phenyl)-N4-phenethylpyrimidine-2,4-diamine]
ACK1 [1]
  inhibition at 10 µM: 91.9%

## CN1CCN(c2ccc(Nc3ncc(Cl)c(NCC4CCCCO4)n3)cc2)CC1 (stereo not drawn) [Example 4, 5-Chloro-N2-(4-(4-methylpiperazin-1-yl)phenyl)-N4-((tetrahydro-2H-pyran-2-yl)methyl)pyrimidine-2,4-diamine hydrochloride]
ACK1 [1]
  inhibition at 10 µM: 97%

## CN1CCN(c2ccc(Nc3ncc(Cl)c(NCCCc4ccccc4)n3)cc2)CC1 [Example 8, 5-Chloro-N2-(4-(4-methylpiperazin-1-yl)phenyl)-N4-(3-phenylpropyl)pyrimidine-2,4-diamine]
ACK1 [1]
  inhibition at 10 µM: 85.8%

## CNC(=O)c1ccc(N2C(=S)N(c3ccc(C#N)c(C(F)(F)F)c3)C(=O)C2(C)C)cc1F [enzalutamide]
[3]
  H4 Y88-phosphorylation: remained unaffected
